1 substance from patent US20100021471A1, “CARBON NANOTUBE-BASED DRUG DELIVERY SYSTEMS AND METHODS OF MAKING SAME” (Brookhaven Science Associates, LLC, priority 2008, published 2010) can be followed below.

The subject of this experiment is L1210FR cells. The experiment can be described thus: MTT cytotoxicity assay, L1210FR cells. The format is cell-based. The following applies: read-out: IC50 of drug itself. As to the method:
Cell culture. L1210 (ATCC) and L1210FR (a gift from Dr. Gregory Russell-Jones, Access Pharmaceuticals Australia Pty Ltd., Targeted Delivery, Unit 5, 15-17 Gibbes St, Chatswood, NSW, Sydney 2067. Australia) were grown as suspension in a RPMI-1640 cell culture medium (Gibco) in the absence of folic acid (FA) supplemented with 10% (v/v) heat-inactivated fetal bovine serum (FBS) and 1% (v/v) Penicillin and Streptomycin (P/S) at 37° C. in humidified atmosphere with 5% CO2. W1-38 embryonic fibroblast cells (ATCC) were cultured as monolayers on a 100 mm tissue culture dishes in a DMEM cell culture medium (Gibco) supplemented with 10% (v/v) heat-inactivated FBS and 1% (v/v) P/S at 37° C. in humidified atmosphere with 5% CO2. The cells were harvested, collected by centrifugation at 1000 rpm for 6 min, and resuspended in fresh medium at different cell density for biological experiments.
Cytotoxicity assay of conjugate 3. The cells were harvested, collected, and resuspended in 100 μL at a concentration of 2×10^4 cells per well in 96-well plates. For the adhesive cell type, the cells were allowed to reseed to the bottom of the plates overnight and the fresh medium were added to each well upon removal of the old medium. […] At the end of this time, the number of viable cells each wells was determined by a quantitative colorimetric staining assay using a tetrazolium salt (MTT, Sigma Chemical Co.). […]
In general terms: Tetrazolium assays rely on reduction of a dye to a coloured formazan, in cell work by metabolically active cells.

On to SB-T-1214-fluorescein, for which the IC50 amounted to 87.6 nM.

In general, IC50 refers to the midpoint of a concentration-inhibition curve.
